{"source": "patent US11911346B2", "about": "“Orally administrated therapeutic for treating mild cognitive impairment (MCI) and improving human cognitive function” (BrainCare LLC, priority 2021, dated 2024)", "key": {"[1]": {"tested_on": "cognitive function of participants with Subjective Cognitive Decline", "assay": "Cambridge Brain Sciences (CBS) battery, combined means of all four tests", "type": "in vivo, human", "excerpt": "(§1) The Cambridge Brain Sciences (CBS) included a battery of four tests to measure various aspects of cognition and that affected different regions of the brain. Normal scores for each test ranged from 87 to 113.\n(§2) For Cambridge Brain Sciences tests, some responses were flagged as being a highly unusual response (found in less than 1% of Cambridge Brain Sciences normative database). […] These scores were considered to be invalid and excluded from the final analysis. For each participant, the combined mean scores of all four CBS tests were summed for at baseline and at week 8. The participants were then grouped according to these mean baseline score of all four tests as: below average (less than or equal to 100) and average and above (greater than 100)."}, "[2]": {"tested_on": "concentration and attention of participants with Subjective Cognitive Decline", "assay": "Cambridge Brain Sciences (CBS) Feature Match test", "type": "in vivo, human", "conditions": "for Feature Match actual score: Week 4, normal 87-113; for Feature Match percentage change: Week 8, over 8 weeks", "excerpt": "as §1\nThe fourth test is the Feature Match (aka Feature Selection), which addresses concentration and attention, and correlates well with aging. It can detect early Alzheimer's disease, and non-Alzheimer's dementia.\n(§3) The data are presented as mean±standard deviation (S.D.) at baseline, week 4, and week 8. Results from the Cognitive Failures Questionnaire and Cambridge Brain Sciences are compared using the Student's t-test in each intervention group between baseline and week 4 and between baseline and week 8. Significance was defined as p≤0.05. At each time point, the percentage change was compared with the values at baseline. This calculation was only obtained from the means between each time point, and the statistical analysis was not made on these percentage changes.\nas §2"}, "salivary testosterone": {"tested_on": "salivary testosterone", "conditions": "olfactory exposure to 3% BCP over 20 minutes, women with low libido; cited from earlier work"}, "[3]": {"tested_on": "concentration and response inhibition of participants with Subjective Cognitive Decline", "assay": "Cambridge Brain Sciences (CBS) Double Trouble test", "type": "in vivo, human", "conditions": "for Double Trouble actual score: Week 4, normal 87-113", "excerpt": "as §1\nThe second test is Double Trouble and addresses concentration and response inhibition. It can detect early Alzheimer's disease and age-related cognitive decline. It has a high reproducibility and is useful in distinguishing impaired and unimpaired aging. The parts of the brain involved include the right prefrontal cortex and dorsolateral region.\nas §3, §2"}, "[4]": {"tested_on": "visuospatial and working memory of participants with Subjective Cognitive Decline", "assay": "Cambridge Brain Sciences (CBS) Monkey Ladder test", "type": "in vivo, human", "conditions": "for Monkey Ladder actual score: Week 4, normal 87-113", "excerpt": "as §1\nThe third test is the Monkey Ladder, which relates visuospatial and working memory. The test can detect early Alzheimer's disease, non-Alzheimer's dementia, and age-related cognitive decline. The parts of the brain involved included: the mid-dorsolateral prefrontal cortex, premotor cortex, and posterior parietal cortex.\nas §3, §2"}, "acute or chronic pain": {"tested_on": "acute or chronic pain", "conditions": "60 mg of BCP daily, by day 4; 31 participants; cited from earlier work"}, "[5]": {"conditions": "one capsule daily (90 mg BCP), all participants"}, "[6]": {"conditions": "one capsule daily (90 mg BCP), baseline mean greater than 100"}, "[7]": {"conditions": "one capsule daily (90 mg BCP), baseline mean less than or equal to 100"}, "[8]": {"conditions": "two capsules daily (180 mg BCP), all participants"}, "[9]": {"conditions": "two capsules daily (180 mg BCP), baseline mean greater than 100"}, "[10]": {"conditions": "two capsules daily (180 mg BCP), baseline mean less than or equal to 100"}, "[11]": {"conditions": "one capsule daily (90 mg BCP), N=24"}, "[12]": {"conditions": "two capsules daily (180 mg BCP), N=25"}, "[13]": {"conditions": "two capsules daily (180 mg BCP)"}, "[14]": {"conditions": "one capsule daily (90 mg BCP), N=25"}, "[15]": {"conditions": "one capsule daily (90 mg BCP), Week 8, over 8 weeks"}, "[16]": {"conditions": "two capsules daily (180 mg BCP), N=22"}, "[17]": {"conditions": "one capsule daily (90 mg BCP), N=23"}}, "note": "Where “and” joins values, the source holds several entries; their conditions need not be identical. Identical values can stand only once.", "data": [{"smiles": "C=C1CC/C=C(\\C)CC[C@@H]2[C@@H]1CC2(C)C", "note": "[BCP, beta-caryophyllene]", "values": [{"measurement": "% of subjects with sub-optimal baseline score (less than 87) who improved to a normal score on any test", "setting": "[1]; one capsule daily (90 mg BCP), during the 8-week study", "value": 31, "unit": "%"}, {"measurement": "Mean of four tests scores at week 8", "setting": "[1]; [5]", "value": 99.8}, {"measurement": "Percentage change (mean ± S.D.) of mean of four tests scores, baseline to week 8", "setting": "[1]; [5]", "value": "3.6±10.0", "unit": "%"}, {"measurement": "Mean of four tests scores at week 8", "setting": "[1]; [6]", "value": 108.7}, {"measurement": "Percentage change (mean ± S.D.) of mean of four tests scores, baseline to week 8", "setting": "[1]; [6]", "value": "−0.7±9.4", "unit": "%"}, {"measurement": "Mean of four tests scores at week 8", "setting": "[1]; [7]", "value": 96.8}, {"measurement": "Percentage change (mean ± S.D.) of mean of four tests scores, baseline to week 8", "setting": "[1]; [7]", "value": "5.0±9.8% and 5%"}, {"measurement": "Mean of four tests scores at week 8", "setting": "[1]; [8]", "value": 101.0}, {"measurement": "Percentage change (mean ± S.D.) of mean of four tests scores, baseline to week 8", "setting": "[1]; [8]", "value": "4.6±12.1", "unit": "%"}, {"measurement": "Mean of four tests scores at week 8", "setting": "[1]; [9]", "value": 104.2}, {"measurement": "Percentage change (mean ± S.D.) of mean of four tests scores, baseline to week 8", "setting": "[1]; [9]", "value": "−1.5% and −1.5 ± 7.5%"}, {"measurement": "Mean of four tests scores at week 8", "setting": "[1]; [10]", "value": 98.8}, {"measurement": "Percentage change (mean ± S.D.) of mean of four tests scores, baseline to week 8", "setting": "[1]; [10]", "value": "9.0±12.9% and 9%"}, {"measurement": "Feature Match: % of participants with no change between baseline and week 8", "setting": "[2]; [11]", "value": "(13%)"}, {"measurement": "Feature Match: number of participants improved between baseline and week 8", "setting": "[2]; [11]", "value": 13}, {"measurement": "Feature Match: number of participants with no change between baseline and week 8", "setting": "[2]; [11]", "value": 3}, {"measurement": "Feature Match: number of participants worsened between baseline and week 8", "setting": "[2]; [11]", "value": 8}, {"measurement": "Feature Match actual score", "setting": "[2]; one capsule daily (90 mg BCP)", "value": "98.3 ± 6.9"}, {"measurement": "Feature Match percentage change", "setting": "[2]; one capsule daily (90 mg BCP)", "value": "+2.0%"}, {"measurement": "Feature Match: % of participants with no change between baseline and week 8", "setting": "[2]; [12]", "value": "(16%)"}, {"measurement": "Feature Match: number of participants improved between baseline and week 8", "setting": "[2]; [12]", "value": 10}, {"measurement": "Feature Match: number of participants with no change between baseline and week 8", "setting": "[2]; [12]", "value": 4}, {"measurement": "Feature Match: number of participants worsened between baseline and week 8", "setting": "[2]; [12]", "value": 11}, {"measurement": "Feature Match actual score", "setting": "[2]; [13]", "value": "98.4 ± 7.6"}, {"measurement": "Feature Match percentage change", "setting": "[2]; [13]", "value": "No change"}, {"measurement": "Salivary testosterone vs. control period", "setting": "salivary testosterone", "value": "increased"}, {"measurement": "Double Trouble: number of participants improved between baseline and week 8", "setting": "[3]; [14]", "value": 15}, {"measurement": "Double Trouble: number of participants with no change between baseline and week 8", "setting": "[3]; [14]", "value": 0}, {"measurement": "Double Trouble: number of participants worsened between baseline and week 8", "setting": "[3]; [14]", "value": 9}, {"measurement": "Double Trouble: % of participants with sub-optimal score", "setting": "[3]; one capsule daily (90 mg BCP), week 8 (56% at baseline)", "value": 44, "unit": "%"}, {"measurement": "Double Trouble actual score", "setting": "[3]; one capsule daily (90 mg BCP)", "value": "93 ± 15"}, {"measurement": "Double Trouble percentage change", "setting": "[3]; [15]", "value": "+5.3%"}, {"measurement": "Double Trouble: % of participants with no change between baseline and week 8", "setting": "[3]; [16]", "value": "(14%)"}, {"measurement": "Double Trouble: number of participants improved between baseline and week 8", "setting": "[3]; [16]", "value": 14}, {"measurement": "Double Trouble: number of participants with no change between baseline and week 8", "setting": "[3]; [16]", "value": 3}, {"measurement": "Double Trouble: number of participants worsened between baseline and week 8", "setting": "[3]; [16]", "value": 5}, {"measurement": "Double Trouble actual score", "setting": "[3]; [13]", "value": "97.3 ± 15.2"}, {"measurement": "Monkey Ladder: % of participants with no change between baseline and week 8", "setting": "[4]; [17]", "value": "(4%)"}, {"measurement": "Monkey Ladder: number of participants improved between baseline and week 8", "setting": "[4]; [17]", "value": 16}, {"measurement": "Monkey Ladder: number of participants with no change between baseline and week 8", "setting": "[4]; [17]", "value": 1}, {"measurement": "Monkey Ladder: number of participants worsened between baseline and week 8", "setting": "[4]; [17]", "value": 6}, {"measurement": "Monkey Ladder actual score", "setting": "[4]; one capsule daily (90 mg BCP)", "value": "103.8 ± 6.7"}, {"measurement": "Monkey Ladder percentage change", "setting": "[4]; [15]", "value": "+2.5%"}, {"measurement": "Monkey Ladder: % of participants with no change between baseline and week 8", "setting": "[4]; [12]", "value": "(28%)"}, {"measurement": "Monkey Ladder: number of participants improved between baseline and week 8", "setting": "[4]; [12]", "value": 17}, {"measurement": "Monkey Ladder: number of participants with no change between baseline and week 8", "setting": "[4]; [12]", "value": 7}, {"measurement": "Monkey Ladder: number of participants worsened between baseline and week 8", "setting": "[4]; [12]", "value": 1}, {"measurement": "Monkey Ladder actual score", "setting": "[4]; [13]", "value": "103.7 ± 8.1"}, {"measurement": "% of participants reporting mitigation of pain", "setting": "acute or chronic pain", "value": 60, "unit": "%"}]}]}
